Measurements taken from ChEMBL document CHEMBL5518186, “Discovery of the cereblon-recruiting tubulin PROTACs effective in overcoming Taxol resistance in vitro and in vivo” (Eur J Med Chem, 2024).
Active and inactive are the calls of the source. No cut-off for these calls is given here.

Key:
[1] = system: MCF7; assay: Antiproliferative activity against human MCF7 cells incubated for 72 hrs; assay type: functional, cell-based; details: MCF7, 72 h
[2] = system: MGC-803; assay: Antiproliferative activity against human MGC-803 cells incubated for 72 hrs; assay type: functional, cell-based; details: MGC-803, 72 h
[3] = system: HeLa; assay: Antiproliferative activity against human HeLa cells incubated for 72 hrs; assay type: functional, cell-based
[4] = system: U-937; assay: Antiproliferative activity against human U-937 cells incubated for 72 hrs; assay type: functional, cell-based; details: U-937, 72 h
[5] = target: T1, Protein cereblon/Tubulin beta-3 chain (Homo sapiens, UniProt Q13509+Q96SW2); assay: Protac activity at CRBN/beta3-tubulin in human A549 cells assessed as reduction in beta3-tubulin level incubated for 48 hrs by immunoblotting analysis; assay type: cell-based
[6] = target: T1, Protein cereblon/Tubulin beta-3 chain; assay: Protac activity at CRBN/beta3-tubulin in human HeLa cells assessed as reduction in beta3-tubulin level at 10 to 1000 nM incubated for 48 hrs by immunoblotting analysis; assay type: cell-based; details: dose 10-1000 nM
Target sequence in this assay (Q13509 whole entry, looked up): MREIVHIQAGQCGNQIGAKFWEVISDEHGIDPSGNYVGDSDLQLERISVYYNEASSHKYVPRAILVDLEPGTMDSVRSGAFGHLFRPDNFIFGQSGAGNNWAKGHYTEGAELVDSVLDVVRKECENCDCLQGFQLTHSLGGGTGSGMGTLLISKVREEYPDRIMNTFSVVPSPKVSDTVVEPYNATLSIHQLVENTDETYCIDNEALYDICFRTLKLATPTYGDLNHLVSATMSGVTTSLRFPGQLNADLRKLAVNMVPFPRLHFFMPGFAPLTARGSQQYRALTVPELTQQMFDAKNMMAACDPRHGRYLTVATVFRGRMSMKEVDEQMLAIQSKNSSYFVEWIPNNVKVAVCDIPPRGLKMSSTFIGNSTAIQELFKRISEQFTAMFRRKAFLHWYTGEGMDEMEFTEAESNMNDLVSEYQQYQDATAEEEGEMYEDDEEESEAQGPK
Target sequence in this assay (Q96SW2 whole entry, looked up): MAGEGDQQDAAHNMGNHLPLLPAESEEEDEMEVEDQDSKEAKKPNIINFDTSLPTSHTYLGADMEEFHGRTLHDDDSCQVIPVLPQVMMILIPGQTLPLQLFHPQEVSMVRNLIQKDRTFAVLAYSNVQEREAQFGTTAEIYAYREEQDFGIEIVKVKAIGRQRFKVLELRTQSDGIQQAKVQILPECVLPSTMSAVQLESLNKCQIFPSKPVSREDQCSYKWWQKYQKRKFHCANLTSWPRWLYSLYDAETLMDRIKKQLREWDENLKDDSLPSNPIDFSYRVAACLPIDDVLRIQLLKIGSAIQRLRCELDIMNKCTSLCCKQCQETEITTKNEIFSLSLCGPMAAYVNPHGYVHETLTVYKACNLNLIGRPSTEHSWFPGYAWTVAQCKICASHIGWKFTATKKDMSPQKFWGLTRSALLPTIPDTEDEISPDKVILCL

[7] = target: T1, Protein cereblon/Tubulin beta-3 chain; assay: Protac activity at CRBN/beta3-tubulin in human MCF7 cells assessed as reduction in beta3-tubulin level at 10 to 1000 nM incubated for 48 hrs by immunoblotting analysis; assay type: cell-based; details: dose 10-1000 nM
Target sequence in this assay (Q13509 whole entry, looked up): as the sequence (Q13509 whole entry, looked up) above
Target sequence in this assay (Q96SW2 whole entry, looked up): as the sequence (Q96SW2 whole entry, looked up) above

[8] = target: T2, Protein cereblon/Tubulin beta (Homo sapiens) (UniProt P68371+Q9H4B7+Q13509+P04350+Q3ZCM7+P07437+Q13885+Q9BVA1+Q9BUF5+Q96SW2+A6NNZ2); assay: Protac activity at CRBN/beta-tubulin in human HepG2 cells assessed as reduction in beta-tubulin level at 10 to 1000 nM incubated for 48 hrs by immunoblotting analysis; assay type: cell-based; details: dose 10-1000 nM
[9] = target: T3, Protein cereblon-alpha tubulin (Homo sapiens) (UniProt P0DPH7+P68366+Q71U36+P68363+Q9BQE3+Q6PEY2+A6NHL2+Q9NY65+Q96SW2); assay: Protac activity at CRBN/alpha-tubulin in human A549 cells assessed as reduction in alpha-tubulin level at 0.25 uM by immunoblotting analysis; assay type: cell-based; details: time 6-72 hrs, TDE = time-dependent effect
[10] = target: T3, Protein cereblon-alpha tubulin (Homo sapiens); assay: Protac activity at CRBN/alpha-tubulin in human A549 cells assessed as reduction in alpha-tubulin level at 0.25 uM after 72 hrs by immunoblotting analysis; assay type: cell-based; set-up: scale not given: the % may be the effect or the level left
[11] = target: T1, Protein cereblon/Tubulin beta-3 chain; assay: Protac activity at CRBN/beta3-tubulin in human A549 cells assessed as reduction in beta3-tubulin level at 0.25 uM after 72 hrs by immunoblotting analysis; assay type: cell-based
Target sequence in this assay (Q13509 whole entry, looked up): as the sequence (Q13509 whole entry, looked up) above
Target sequence in this assay (Q96SW2 whole entry, looked up): as the sequence (Q96SW2 whole entry, looked up) above

[12] = target: T1, Protein cereblon/Tubulin beta-3 chain; assay: Protac activity at CRBN/beta3-tubulin in human A549 cells assessed as reduction in beta3-tubulin level at 0.25 uM pretreated for 48 hrs followed by compound washout and measured after 24 hrs by immunoblotting analysis; assay type: cell-based
Target sequence in this assay (Q13509 whole entry, looked up): as the sequence (Q13509 whole entry, looked up) above
Target sequence in this assay (Q96SW2 whole entry, looked up): as the sequence (Q96SW2 whole entry, looked up) above

[13] = target: T2, Protein cereblon/Tubulin beta (Homo sapiens); assay: Protac activity at CRBN/beta-tubulin in human A549 cells assessed as reduction in beta-tubulin level at 0.25 uM pretreated with MG-132 followed by compound addition and measured after 24 hrs by immunoblotting analysis; assay type: cell-based
[14] = target: T1, Protein cereblon/Tubulin beta-3 chain; assay: Protac activity at CRBN/beta3-tubulin in human A549 cells assessed as reduction in beta3-tubulin level at 0.25 uM pretreated with MG-132 followed by compound addition and measured after 24 hrs by immunoblotting analysis; assay type: cell-based
Target sequence in this assay (Q13509 whole entry, looked up): as the sequence (Q13509 whole entry, looked up) above
Target sequence in this assay (Q96SW2 whole entry, looked up): as the sequence (Q96SW2 whole entry, looked up) above

[15] = target: T3, Protein cereblon-alpha tubulin (Homo sapiens); assay: Protac activity at CRBN/alpha-tubulin in human A549 cells assessed as reduction in alpha-tubulin level at 0.25 uM pretreated with pomalidomide for 2 hrs followed by compound addition and measured after 24 hrs by immunoblotting analysis; assay type: cell-based
[16] = target: T2, Protein cereblon/Tubulin beta (Homo sapiens); assay: Protac activity at CRBN/beta-tubulin in human A549 cells assessed as reduction in beta-tubulin level at 0.25 uM pretreated with pomalidomide for 2 hrs followed by compound addition and measured after 24 hrs by immunoblotting analysis; assay type: cell-based
[17] = target: T1, Protein cereblon/Tubulin beta-3 chain; assay: Protac activity at CRBN/beta3-tubulin in human A549 cells assessed as reduction in beta3-tubulin level at 0.25 uM pretreated with CA-4 for 2 hrs followed by compound addition and measured after 24 hrs by immunoblotting analysis; assay type: cell-based
Target sequence in this assay (Q13509 whole entry, looked up): as the sequence (Q13509 whole entry, looked up) above
Target sequence in this assay (Q96SW2 whole entry, looked up): as the sequence (Q96SW2 whole entry, looked up) above

[18] = target: T1, Protein cereblon/Tubulin beta-3 chain; assay: Protac activity at CRBN/beta3-tubulin in human A549/Taxol cells assessed as reduction in beta3-tubulin level at 0.25 uM pretreated with MG-132 followed by compound addition and measured after 48 hrs by immunoblotting analysis; assay type: cell-based
[19] = target: T3, Protein cereblon-alpha tubulin (Homo sapiens); assay: Protac activity at CRBN/alpha-tubulin in human A549/Taxol cells assessed as reduction in alpha-tubulin level at 0.25 uM pretreated with pomalidomide for 2 hrs followed by compound addition and measured after 48 hrs by immunoblotting analysis; assay type: cell-based
[20] = target: T1, Protein cereblon/Tubulin beta-3 chain; assay: Protac activity at CRBN/beta3-tubulin in human A549/Taxol cells assessed as reduction in beta3-tubulin level at 0.25 uM pretreated with pomalidomide for 2 hrs followed by compound addition and measured after 48 hrs by immunoblotting analysis; assay type: cell-based
[21] = target: T1, Protein cereblon/Tubulin beta-3 chain; assay: Protac activity at CRBN/beta3-tubulin in human A549/Taxol cells assessed as reduction in beta3-tubulin level at 0.25 uM pretreated with CA-4 for 2 hrs followed by compound addition and measured after 48 hrs by immunoblotting analysis; assay type: cell-based
[22] = system: HEK-293T; assay: Cytotoxicity against HEK293T cells assessed as effect on cell viability at 20 uM; assay type: toxicity, cell-based; details: human
[23] = system: A549; assay: Induction of cell cycle arrest in human A549 cells assessed as accumulation of cells at S phase at 0.002 uM incubated for 24 hrs by PI staining based flow cytometry analysis (reference value: 1.39%); assay type: functional
[24] = system: A549; assay: Induction of cell cycle arrest in human A549 cells assessed as accumulation of cells at G2/M phase at 0.002 uM incubated for 24 hrs by PI staining based flow cytometry analysis (reference value: 31.86%); assay type: functional
[25] = system: A549; assay: Induction of cell cycle arrest in human A549 cells assessed as accumulation of cells at G2/M phase at 0.05 uM incubated for 24 hrs by PI staining based flow cytometry analysis (reference value: 31.86%); assay type: functional
[26] = system: A549/TR; assay: Induction of cell cycle arrest in human A549/Taxol cells assessed as accumulation of cells at S phase at 0.002 uM incubated for 24 hrs by PI staining based flow cytometry analysis (reference value: 2.85%); assay type: functional
[27] = system: A549/TR; assay: Induction of cell cycle arrest in human A549/Taxol cells assessed as accumulation of cells at G0/G1 phase at 0.01 uM incubated for 24 hrs by PI staining based flow cytometry analysis (reference value: 77.86%); assay type: functional
[28] = system: HUVEC; assay: Antiangiogenic activity in HUVECs assessed as reduction in cord formation at 2.5 nM incubated for 6 to 8 hrs by inverted microscopic analysis; assay type: functional, cell-based; details: Homo sapiens, time 6-8 hrs
[29] = system: A549; assay: Antitumor activity against human A549 cells xenografted in nude mouse assessed as decrease in tumor weight at 15 mg/kg, ip administered once every 2 days for 23 days by Vernier caliper method; assay type: functional, organism-based; details: time 23.0 day
[30] = system: A549; assay: Antitumor activity against human A549 cells xenografted in nude mouse assessed as tumor growth inhibition at 15 mg/kg, […] administered once every 2 days for 23 days by Vernier caliper method; assay type: functional; details: A549, 552 h, time 23 day, read-out: TGI
[31] = system: HepG2; assay: Inhibition of DNA synthesis in human HepG2 cells; assay type: functional, cell-based
[32] = system: HepG2; assay: Induction of cell cycle arrest in human HepG2 cells assessed as G2/M phase arrest; assay type: functional, cell-based
[33] = system: HepG2; assay: Induction of apoptosis in human HepG2 cells; assay type: functional, cell-based
[34] = system: HepG2; assay: Induction of intracellular ROS generation in human HepG2 cells; assay type: functional, cell-based
[35] = system: HepG2; assay: Inhibition of cell invasion in human HepG2 cells; assay type: functional, cell-based

`COc1ccc(/C=C\c2cc(OC)c(OC)c(OC)c2)cc1OC(=O)CCCNc1cccc2c1C(=O)N(C1CCC(=O)NC1=O)C2=O` (stereo unspecified) was tested, and the IC50 [1] was 0.012 µM, the IC50 [2] was 0.008 µM and the IC50 [3] was 0.021 µM. The IC50 [4] was 0.018 µM, the Activity [5] was “Dose-Dependent Effect” and the DC50 [5] was 0.251 µM. For the same molecule, the Activity [6] was “Active”, the Activity [7] was “Active” and the Activity [8] was “Active”. The Activity [9] was “Tde”, the Activity [10] was 43.7% and the Activity [11] was “inactive”. For the same molecule, the Activity [12] was “inactive”, the Activity [13] was “inactive” and the Activity [14] was “inactive”. For the same molecule, the Activity [15] was “inactive”, the Activity [16] was “inactive” and the Activity [17] was “inactive”. The Activity [18] was “inactive”, the Activity [19] was “inactive” and the Activity [20] was “inactive”. For the same molecule, the Activity [21] was “inactive”, the Activity [22] was “Non-Toxic” and the Activity [23] was 5.65%. It also gave an Activity [24] of 37.03%, an Activity [25] of 73.41% and an Activity [26] of 7.68%. The Activity [27] was 26.79%, the Activity [28] was “Active” and the Activity [29] was “Active”. The inhibition in vivo at 15 mg/kg [30] was 34.1%, the inhibition [31] was “Dose-Dependent Effect” and the Activity [32] was “Active”. The Activity [33] was “Active”, the Activity [34] was “Active” and the inhibition [35] was “Dose-Dependent Effect”.
